Assays:
[1] = system: Alternaria brassicae; experiment: In vivo test on Alternaria brassicae (leaf spot of crucifers), radish plants, preventive spray; details: for pest or weed control at 330 ppm: Alternaria brassicae, radish plants (Pernot), treated 24 h before contamination, grading 6 to 7 days after contamination vs control plants, read-out: protection (good, at least 50%, to total); for effectiveness on Alternaria brassicae: 330 ppm, comparison compounds of WO 01/11965
Description: (§1) The active ingredient tested is prepared by potter homogenisation in a concentrated suspension type formulation at 100 g/l. This suspension is then diluted with water to obtain the desired active material concentration.
Radish plants (Pernot variety) in starter cups, sown on a 50/50 peat soil-pozzolana substrate and grown at 18-20° C., are treated at the cotyledon stage by spraying with the aqueous suspension described above.
Plants, used as controls, are treated with an aqueous solution not containing the active material.
After 24 hours, the plants are contaminated by spraying them with an aqueous suspension of Alternaria brassicae spores (40,000 spores per cm^3). The spores are collected from a 12-13-day-old culture.
The contaminated radish plants are incubated for 6-7 days at about 18° C., under a humid atmosphere.
Grading is carried out 6 to 7 days after the contamination, in comparison with the control plants.

[2] = system: Pyrenophora teres; experiment: In vivo test on Pyrenophora teres (barley net blotch), barley plants, preventive spray; details: 288 h, barley plants (Express), treated 24 h before contamination, grading 12 days after contamination vs control plants, read-out: protection (good, at least 50%, to total)
Description: as §1
(§2) Barley plants (Express variety) in starter cups, sown on a 50/50 peat soil-pozzolana substrate and grown at 12° C., are treated at the 1-leaf stage (10 cm tall) by spraying with the aqueous suspension described above. Plants, used as controls, are treated with an aqueous solution not containing the active material.
After 24 hours, the plants are contaminated by spraying them with an aqueous suspension of Pyrenophora teres spores (12,000 spores per ml). The spores are collected from a 12-day-old culture. The contaminated barley plants are incubated for 24 hours at about 20° C. and at 100% relative humidity, and then for 12 days at 80% relative humidity.
Grading is carried out 12 days after the contamination, in comparison with the control plants.

[3] = system: Botrytis cinerea; experiment: In vivo test on Botrytis cinerea (gherkin grey mould), gherkin plants, preventive spray; details: 330 ppm; comparison compounds of WO 01/11965
Description: as §1
as §2, with “Gherkin” for “Barley”, “(Petit Vert de Paris” for “(Express”, “18-20°” for “12°”, “cotyledon Z11” for “1-leaf”, “stage” for “stage (10 cm tall)”
After 24 hours, the plants are contaminated by depositing drops of an aqueous suspension of Botrytis cinerea spores (150,000 spores per ml) on upper surface of the leaves. The spores are collected from a 15-day-old culture and are suspended in a nutrient solution composed of: • 20 g/L of gelatin • 50 g/L of cane sugar • 2 g/L of NH4NO3 • 1 g/L of KH2PO4
The contaminated gherkin plants are settled for 5/7 days in a climatic room at 15-11° C. (day/night) and at 80% relative humidity.
Grading is carried out 5/7 days after the contamination, in comparison with the control plants. Under these conditions, good (at least 50%) or total protection is observed at a dose of 330 ppm with the following compounds: 38 and 57.

CCC(CNC(=O)c1ccccc1C)c1ncc(C(F)(F)F)cc1Cl (stereo not drawn) [Compound 23]
pest or weed control at 330 ppm [1]: ≥ 50%

Cc1c(Cl)cccc1C(=O)NCC(C)c1ncc(C(F)(F)F)cc1Cl (stereo not drawn) [Compound 12]
pest or weed control at 330 ppm [1]: ≥ 50%

CC(CNC(=O)c1ccccc1I)c1ccc(C(F)(F)F)c(Cl)n1 (stereo not drawn) [Compound 63]
pest or weed control at 330 ppm [1]: ≥ 50% | pest or weed control at 330 ppm [2]: ≥ 50%

CC(CNC(=O)c1cccc(Cl)c1F)c1ncc(C(F)(F)F)cc1Cl (stereo not drawn) [Compound 11]
pest or weed control at 330 ppm [1]: ≥ 50%

Cc1c(F)cccc1C(=O)NCC(C)c1ncc(C(F)(F)F)cc1Cl (stereo not drawn) [Compound 13]
pest or weed control at 330 ppm [1]: ≥ 50% | pest or weed control at 330 ppm [2]: ≥ 50%

CC(CNC(=O)c1ccccc1C(F)(F)F)c1ccc(C(F)(F)F)c(Cl)n1 (stereo not drawn) [Compound 62]
pest or weed control at 330 ppm [1]: ≥ 50% | pest or weed control at 330 ppm [2]: ≥ 50%

CCCC(CNC(=O)c1ccccc1C(F)F)c1ncc(C(F)(F)F)cc1Cl (stereo not drawn) [Compound 44]
pest or weed control at 330 ppm [2]: ≥ 50%

CC(Cc1ccc(C(F)(F)F)c(Cl)n1)NC(=O)c1ccccc1C(F)(F)F (stereo not drawn) [Compound 61]
pest or weed control at 330 ppm [2]: ≥ 50%

CCC(CNC(=O)c1ccccc1C(F)F)c1ncc(C(F)(F)F)cc1Cl (stereo not drawn) [Compound 41]
pest or weed control at 330 ppm [2]: ≥ 50%

CCC(CNC(=O)c1cccc(OC)c1OC)c1ncc(C(F)(F)F)cc1Cl (stereo not drawn) [Compound 21]
pest or weed control at 330 ppm [1]: ≥ 50%

CCNC(=O)C(Cc1ncc(C(F)(F)F)cc1Cl)NC(=O)c1ccccc1 (stereo not drawn) [compound 304, N-{1-ethylcarbamoyl-2-[3-chloro-5-(trifluoromethyl)-2-pyridinyl]-ethyl}-benzamide]
effectiveness on Botrytis cinerea [3]: zero

CC(CNC(=O)c1ccccc1I)c1ccc(C(F)(F)F)cn1 (stereo not drawn) [Compound 67]
pest or weed control at 330 ppm [1]: ≥ 50% | pest or weed control at 330 ppm [2]: ≥ 50%

CC(C)(CNC(=O)c1ccccc1C(F)(F)F)c1ncc(C(F)(F)F)cc1Cl [Compound 33]
pest or weed control at 330 ppm [1]: ≥ 50% | pest or weed control at 330 ppm [2]: ≥ 50%

CCC(Cc1ncc(C(F)(F)F)cc1Cl)NC(=O)c1ccccc1C(F)(F)F (stereo not drawn) [Compound 47, N-(1-{[3-chloro-5-(trifluoromethyl)-2-Pyridinyl]methyl}propyl)-2-(trifluoromethyl)benzamide]
pest or weed control at 330 ppm [1]: ≥ 50% | pest or weed control at 330 ppm [2]: ≥ 50%

CNC(=O)C(Cc1ncc(C(F)(F)F)cc1Cl)NC(=O)c1ccc(-c2ccccc2)cc1 (stereo not drawn) [compound 316, N-{1-methylcarbamoyl-2-[3-chloro-5-(trifluoromethyl)-2-pyridinyl]-ethyl}-4-phenylbenzamide, reference compound]
effectiveness on Alternaria brassicae [1]: poor | effectiveness on Botrytis cinerea [3]: zero

Cc1c(O)cccc1C(=O)NCC(C)c1ncc(C(F)(F)F)cc1Cl (stereo not drawn) [Compound 15]
pest or weed control at 330 ppm [1]: ≥ 50%

Cc1ccc(C(=O)NCC(C)c2ncc(C(F)(F)F)cc2Cl)c(C)c1 (stereo not drawn) [Compound 9]
pest or weed control at 330 ppm [1]: ≥ 50% | pest or weed control at 330 ppm [2]: ≥ 50%

CC(NC(=O)c1ccccc1C(F)(F)F)C(C)c1ncc(C(F)(F)F)cc1Cl (stereo not drawn) [Compound 58]
pest or weed control at 330 ppm [1]: ≥ 50% | pest or weed control at 330 ppm [2]: ≥ 50%

CC(CNC(=O)c1ccccc1C(F)(F)F)c1ncc(C(F)(F)F)cc1Cl (stereo not drawn) [Compound 32]
pest or weed control at 330 ppm [1]: ≥ 50% | pest or weed control at 330 ppm [2]: ≥ 50%

Cc1ccc(C)c(C(=O)NCC(C)c2ncc(C(F)(F)F)cc2Cl)c1 (stereo not drawn) [Compound 10]
pest or weed control at 330 ppm [1]: ≥ 50% | pest or weed control at 330 ppm [2]: ≥ 50%

CC(CNC(=O)c1ccccc1Br)c1ccc(C(F)(F)F)c(Cl)n1 (stereo not drawn) [Compound 64]
pest or weed control at 330 ppm [1]: ≥ 50% | pest or weed control at 330 ppm [2]: ≥ 50%

COc1ccccc1C(=O)NCC(C)c1ncc(C(F)(F)F)cc1Cl (stereo not drawn) [Compound 4]
pest or weed control at 330 ppm [1]: ≥ 50%

CNC(=O)C(Cc1ncc(C(F)(F)F)cc1Cl)NC(=O)c1ccc(OC)cc1 (stereo not drawn) [compound 315, N-{1-methylcarbamoyl-2-[3-chloro-5-(trifluoromethyl)-2-pyridinyl]ethyl}-4-methoxybenzamide]
effectiveness on Botrytis cinerea [3]: zero

CC(CNC(=O)c1cc(Cl)ccc1Cl)c1ncc(C(F)(F)F)cc1Cl (stereo not drawn) [Compound 3]
pest or weed control at 330 ppm [1]: ≥ 50%

CCC(CNC(=O)c1ccc(C)cc1C)c1ncc(C(F)(F)F)cc1Cl (stereo not drawn) [Compound 25]
pest or weed control at 330 ppm [1]: ≥ 50%

CCC(CNC(=O)c1ccccc1C(F)(F)F)c1ncc(C(F)(F)F)cc1Cl (stereo not drawn) [Compound 39, N-{2-[3-chloro-5-(trifluoromethyl)-2-Pyridinyl]butyl}-2-(trifluoromethyl)benzamide]
pest or weed control at 330 ppm [2]: ≥ 50%

CC(NC(=O)c1ccccc1I)C(C)c1ncc(C(F)(F)F)cc1Cl (stereo not drawn) [Compound 59]
pest or weed control at 330 ppm [1]: ≥ 50% | pest or weed control at 330 ppm [2]: ≥ 50%

CC(Cc1ncc(C(F)(F)F)cc1Cl)NC(=O)c1ccccc1C(F)(F)F (stereo not drawn) [Compound 38]
pest or weed control at 330 ppm [1]: ≥ 50% | pest or weed control at 330 ppm [2]: ≥ 50%

Cc1cccc(C(=O)NCC(C)c2ncc(C(F)(F)F)cc2Cl)c1C (stereo not drawn) [Compound 8]
pest or weed control at 330 ppm [1]: ≥ 50% | pest or weed control at 330 ppm [2]: ≥ 50%

CCC(CNC(=O)c1ccccc1Br)c1ncc(C(F)(F)F)cc1Cl (stereo not drawn) [Compound 40]
pest or weed control at 330 ppm [2]: ≥ 50%

CCNC(=O)C(Cc1ncc(C(F)(F)F)cc1Cl)NC(=O)c1ccc(Cl)cc1 (stereo not drawn) [compound 306, N-{1-ethylcarbamoyl-2-[3-chloro-5-(trifluoromethyl)-2-pyridinyl]ethyl}-4-chlorobenzamide]
effectiveness on Botrytis cinerea [3]: zero

CCC(CNC(=O)c1cccc(O)c1C)c1ncc(C(F)(F)F)cc1Cl (stereo not drawn) [Compound 30]
pest or weed control at 330 ppm [2]: ≥ 50%

CCNC(=O)C(Cc1ncc(C(F)(F)F)cc1Cl)NC(=O)c1cccc([N+](=O)[O-])c1 (stereo not drawn) [compound 307, N-{1-ethylcarbamoyl-2-[3-chloro-5-(trifluoromethyl)-2-pyridinyl]ethyl}-3-nitrobenzamide, reference compound]
effectiveness on Alternaria brassicae [1]: poor | effectiveness on Botrytis cinerea [3]: zero

CNC(=O)C(Cc1ncc(C(F)(F)F)cc1Cl)NC(=O)c1ccccc1 (stereo not drawn) [compound 314, N-{1-methylcarbamoyl-2-[3-chloro-5-(trifluoromethyl)-2-pyridinyl]ethyl}-benzamide]
effectiveness on Botrytis cinerea [3]: zero

CCCC(CCC)(CNC(=O)c1ccccc1I)c1ncc(C(F)(F)F)cc1Cl [Compound 36]
pest or weed control at 330 ppm [1]: ≥ 50%

CCCC(CNC(=O)c1ccccc1Br)c1ncc(C(F)(F)F)cc1Cl (stereo not drawn) [Compound 43]
pest or weed control at 330 ppm [1]: ≥ 50% | pest or weed control at 330 ppm [2]: ≥ 50%

CCCC(CNC(=O)c1ccccc1C(F)(F)F)c1ncc(C(F)(F)F)cc1Cl (stereo not drawn) [Compound 42]
pest or weed control at 330 ppm [1]: ≥ 50%

Cc1ccccc1C(=O)NCC(C)c1ncc(C(F)(F)F)cc1Cl (stereo not drawn) [Compound 7]
pest or weed control at 330 ppm [1]: ≥ 50% | pest or weed control at 330 ppm [2]: ≥ 50%

CCCC(CCC)(CNC(=O)c1ccccc1C(F)(F)F)c1ncc(C(F)(F)F)cc1Cl [Compound 35]
pest or weed control at 330 ppm [1]: ≥ 50%

CCNC(=O)C(Cc1ncc(C(F)(F)F)cc1Cl)NC(=O)c1ccccc1Br (stereo not drawn) [compound 310, N-{1-ethylcarbamoyl-2-[3-chloro-5-(trifluoromethyl)-2-pyridinyl]ethyl}-2-bromobenzamide]
effectiveness on Botrytis cinerea [3]: zero

CC(CNC(=O)c1ccccc1C(F)(F)F)c1ccc(C(F)(F)F)cn1 (stereo not drawn) [Compound 66]
pest or weed control at 330 ppm [1]: ≥ 50% | pest or weed control at 330 ppm [2]: ≥ 50%
